{"source": "patent US10717981B2", "about": "“Therapeutic compositions and methods of making and using the same” (Advanced ReGen Medical Technologies, LLC, priority 2018, dated 2020)", "key": {"restored cells": {"system": "restored cells", "assay": "Transwell co-culture of donor and receiver cell samples in presence or absence of manumycin", "type": "cell-based, human", "from_the_text": "Receiver cell samples (i.e., R1, R2, and R3) were individually paired with donor cell samples (i.e., D1, D2, and D3) and the pairs co-cultured in a transwell culture cell for four weeks. The morphology of the cells was studied at 2 weeks into the co-culture and at 4 weeks of co-culture. Gene expression arrays, protein arrays, and telomere length experiments compared freshly defrosted cells from the collection tubes (referred to as the baseline donor cell sample or baseline receiver cell sample) with cells at the 4-week study endpoint (referred to as restored cell samples).\nProtein array analyses were carried out using conditioned media from the baseline donor cell sample or baseline receiver cell sample. The conditioned media was mixed with like cellular protein extracts and applied to the custom-designed arrays which consisted of antibody probes for 68 factors linked to cellular aging and senescence, collectively referred to as the senescence-associated secretory factors (SASF). Quantitative PCR gene array analyses were carried out by extracting RNA from the baseline samples or the co-cultured donor and receiver samples. The data presented represents the average metric determined for either the baseline donor cell sample, the baseline receiver cell sample, or the restored cell sample.\nThe nature of the soluble particles passing through the permeable membrane in the transwell co-culture experiments was investigated. Specifically, transwell co-culture experiments were carried out in the presence or absence of manumycin. Manumycin, -[(1S,5S,6R)-5-hydroxy-5-[(1E,3E,5E)-7-[(2-hydroxy-5-oxo-1-cyclopenten-1-yl)amino]-7-oxo-1,3,5-heptatrien-1-yl]-2-oxo-7-oxabicyclo[4.1.]hept-3-en-3-yl]-2E,4E,6R-trimethyl,2,4-decadienamide, is an antibiotic that acts a potent and selective farnesytransferase inhibitor. Mannumycin is also known to inhibit the release of exosomes. […] Further support for the role of exosome/microvesicles in mediating the disclosed cellular restoration process is shown in FIG. 36."}, "Aged TNCs": {"system": "Aged TNCs", "assay": "Viability and cell count of aged TNCs cultured with CaMKP inhibitor (Trypan blue exclusion)", "type": "cell-based, human", "description": "Aged TNCs (20×10^6 cells per sample) were cultured with CaMKP inhibitor (FT-0640107 shown below) at the following concentrations 25 uM, 10 uM, 5 uM, 1 uM & 0 (vehicle). After 48 and 72 hours, cells were harvested, counted using Turk's solution and percent viability assessed using Trypan blue exclusion.\nAt 72 hours following treatment with the CaMPK inhibitor, FT-0640107, or vehicle, cells were harvested, counted and viability measured using Trypan blue exclusion."}, "aged cells": {"system": "aged cells", "assay": "Clonogenic assay (CFU-GM) of aged cells after miRNA mimic, siRNA or exosome treatment", "type": "cell-based, human", "conditions": "overexpression of candidate miRNAs in aged isochronic cultures, vs negative control RNA", "from_the_text": "Aged TNCs (10×10^6 cells per sample) were nucleofected with microRNA mimics (Qiagen), miRNA inhibitors (Qiagen), negative control siRNA (Qiagen), negative control miRNA inhibitor (Qiagen) or downstream target candidate siRNAs (Origene) using the Amaxa P3 Primary Cell 4D-Nucleofector X Kit (Lonza) on a 4D Nucleofector device (Lonza), according to manufacturer's specific protocol. Briefly, for nucleofection of CD34+ cells used in clonogenic assays, cells were nucleofected with 60 nmol total miRNA mimics, miRNA inhibitors or siRNA using the “human CD34+ cell” program. For nucleofection of T cells used in T cell activation and cell-mediated cytotoxicity assays, cells were nucleofected with 240 nmol total miRNA mimics, miRNA inhibitors or siRNA using the “human unstimulated T cell, high functionality” program."}, "[1]": {"system": "exosomes of heterochronic cultures", "assay": "Exosome production and RNA content in heterochronic culture with AGO2 inhibitor", "type": "cell-based, human", "description": "Exosomes were isolated from cell culture media by the Total Exosome Isolation Kit (Life Technologies), using a modified version of the manufacturer's protocol. Briefly, 7-day isochronic and heterochronic cultures were established with Exosome-depleted FBS Media Supplement (System Biosciences), and culture media collected on the 4th and 7th days. Cells were pelleted and supernatant transferred to another tube for further clarification at 2000 g for 30 min to remove residual cells and debris. The remaining supernatant was transferred to a fresh tube and 0.5 volumes of Total Exosome Isolation reagent added for overnight incubation at 4° C. The following day samples were centrifuged at 10,000 g for 1 hr at 4° C. to pellet the exosomes for subsequent nanoparticle tracking analysis (NTA) or long-term storage at −80° C. […] For NTA, exosomes were re-suspended in 0.5 mL of PBS and measured using the following parameters: Temperature=25.6+/−0.5° C.; Viscosity=(Water) 0.99+/−0.01 cP; Measurement time=30 sec; Syringe pump speed=30. […]\nTotal RNA from exosomes and cells was isolated using the miRCURY RNA Isolation Kit (Exiqon) with small and large RNAs fractionated with the RNeasy MinElute Cleanup Kit (Qiagen), both according to manufacturer's recommended specifications. […] Mapped reads from individual samples were then compared to determine fold change for each miRNA. […]"}}}
{"compound": "CCCC[C@@H](C)/C=C(C)/C=C(\\C)C(=O)NC1=C[C@@](O)(/C=C/C=C/C=C/C(=O)NC2=C(O)CCC2=O)[C@@H]2O[C@@H]2C1=O", "note": "[manumycin, -[(1S,5S,6R)-5-hydroxy-5-[(1E,3E,5E)-7-[(2-hydroxy-5-oxo-1-cyclopenten-1-yl)amino]-7-oxo-1,3,5-heptatrien-1-yl]-2-oxo-7-oxabicyclo[4.1.]hept-3-en-3-yl]-2E,4E,6R-trimethyl,2,4-decadienamide]", "values": [{"measurement": "morphology of restored cells", "setting": "restored cells; 5 μM, vs absence of manumycin", "result": "less robust morphology"}, {"measurement": "telomere length of restored cell sample", "setting": "restored cells; R1-D1 pair, presence vs absence of manumycin", "result": "decreased"}, {"measurement": "gene expression of restored cell samples", "setting": "restored cells; co-cultured in the presence of manumycin", "result": "did not display a change in expression levels similar to those observed in the absence of manumycin"}, {"measurement": "protein expression (senescence-related factors) of restored cell samples", "setting": "restored cells; vs co-culture in the absence of manumycin", "result": "elevated levels of all proteins investigated"}]}
{"compound": "Nc1c(S(=O)(=O)O)cc(S(=O)(=O)[O-])c2cccc(O)c12.[Na+]", "note": "[FT-0640107]", "values": [{"measurement": "cell number", "setting": "Aged TNCs; 1 μM, 72 hours, vs vehicle control and high dose (25 μM), donor A04", "result": "increase in cell number"}, {"measurement": "viability at 1 µM", "setting": "Aged TNCs; Homo sapiens, 1 μM, 72 hours, donor A04", "result": 96.3, "unit": "%"}, {"measurement": "viability at 25 µM", "setting": "Aged TNCs; Homo sapiens, high dose of 25 μM, 72 hours, donor A04", "result": 93, "unit": "%"}, {"measurement": "cell viability and cell number", "setting": "Aged TNCs; donor A03, 48 or 72 hour timepoints", "result": "no significant difference"}]}
{"compound": "O=C(/C=C/c1ccc(/C=C/C(=O)Nc2ccc(C3=NCCN3)cc2)cc1)Nc1ccc(C2=NCCN2)cc1", "note": "[GW4869]", "values": [{"measurement": "toxicity to the aged cultures", "setting": "aged MPB", "result": "extremely toxic"}, {"measurement": "restorative phenotype", "setting": "aged MPB; blocking global exosome production (data not shown)", "result": "abrogated"}]}
{"compound": "miR-1303: miRNA (miR-1303), UUUAGAGACGGGGUCUUGCUCU (listed as RNA, chemistry not fully specified; listed as Homo sapiens)", "values": [{"measurement": "aged colony formation", "setting": "aged cells", "result": "significant effect"}]}
{"compound": "CC(NS(=O)(=O)c1ccc2[nH]c(=O)c(=O)[nH]c2c1)C(=O)O", "note": "(centres unmarked) [BCI-137]", "values": [{"measurement": "exosome production and total RNA content", "setting": "[1]", "result": "minimal effect"}, {"measurement": "small and miRNA payload of exosomes", "setting": "[1]", "result": "depleted"}, {"measurement": "aged MPB clonogenicity", "setting": "aged MPB; inhibitor added to heterochronic cultures upon initial seeding", "result": "significant decrease"}]}
